Laboratory results as given in ChEMBL document CHEMBL5029156 (J Med Chem, 2021).

Legend:
Aldehyde oxidase [1] = biological target: T1, Aldehyde oxidase (Homo sapiens, UniProt Q06278); test: Noncompetitive type inhibition of human AOX assessed as inhibitor dissociation constant by measuring slope of the double reciprocal plot using phthalazine as substrate by Michaelis-Menten analysis; settings: read-out: Kis
T1 sequence (Q06278 whole entry): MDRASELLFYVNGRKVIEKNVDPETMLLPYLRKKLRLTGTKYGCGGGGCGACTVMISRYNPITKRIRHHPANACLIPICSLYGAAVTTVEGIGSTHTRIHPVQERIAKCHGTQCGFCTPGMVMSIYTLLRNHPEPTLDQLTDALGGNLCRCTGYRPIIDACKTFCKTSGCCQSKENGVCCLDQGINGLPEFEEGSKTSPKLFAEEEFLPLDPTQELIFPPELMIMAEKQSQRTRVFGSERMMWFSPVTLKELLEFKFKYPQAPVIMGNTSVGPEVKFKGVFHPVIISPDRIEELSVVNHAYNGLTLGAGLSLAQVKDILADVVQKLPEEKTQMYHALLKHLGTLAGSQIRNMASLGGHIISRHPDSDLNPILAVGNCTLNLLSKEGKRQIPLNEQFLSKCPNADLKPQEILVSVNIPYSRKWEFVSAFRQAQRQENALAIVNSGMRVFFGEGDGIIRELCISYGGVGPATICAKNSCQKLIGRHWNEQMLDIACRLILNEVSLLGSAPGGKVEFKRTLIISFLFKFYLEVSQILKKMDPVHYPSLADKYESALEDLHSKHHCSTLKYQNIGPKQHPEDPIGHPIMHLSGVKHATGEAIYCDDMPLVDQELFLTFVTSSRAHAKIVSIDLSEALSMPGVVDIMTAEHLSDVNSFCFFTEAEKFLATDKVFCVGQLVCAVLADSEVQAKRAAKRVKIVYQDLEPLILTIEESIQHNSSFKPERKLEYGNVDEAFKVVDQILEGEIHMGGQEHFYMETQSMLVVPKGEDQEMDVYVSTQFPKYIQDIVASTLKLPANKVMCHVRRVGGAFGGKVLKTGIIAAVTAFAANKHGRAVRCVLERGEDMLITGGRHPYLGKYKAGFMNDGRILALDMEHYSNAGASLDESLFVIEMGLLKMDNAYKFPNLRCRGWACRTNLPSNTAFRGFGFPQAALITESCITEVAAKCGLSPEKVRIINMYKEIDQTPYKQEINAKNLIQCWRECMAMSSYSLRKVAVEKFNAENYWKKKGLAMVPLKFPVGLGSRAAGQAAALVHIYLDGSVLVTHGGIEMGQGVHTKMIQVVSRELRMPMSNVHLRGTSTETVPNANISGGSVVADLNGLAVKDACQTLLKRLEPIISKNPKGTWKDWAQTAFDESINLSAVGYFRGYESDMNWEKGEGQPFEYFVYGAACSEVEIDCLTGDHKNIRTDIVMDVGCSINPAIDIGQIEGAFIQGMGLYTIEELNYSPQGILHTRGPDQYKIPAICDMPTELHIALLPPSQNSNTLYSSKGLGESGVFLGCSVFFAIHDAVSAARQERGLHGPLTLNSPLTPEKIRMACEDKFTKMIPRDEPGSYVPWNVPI

Aldehyde oxidase [2] = biological target: T1, Aldehyde oxidase; test: Noncompetitive type inhibition of human AOX assessed as inhibitor dissociation constant by measuring changes in intercept of the double reciprocal plot using phthalazine as substrate by Michaelis-Menten analysis; settings: read-out: Kii
Aldehyde oxidase [3] = biological target: T1, Aldehyde oxidase; test: Mixed type inhibition of human AOX assessed as inhibitor dissociation constant by measuring changes in intercept of the double reciprocal plot using phenanthridine as substrate by Michaelis-Menten analysis; settings: read-out: Kii
Aldehyde oxidase [4] = biological target: T1, Aldehyde oxidase; test: Mixed type inhibition of human AOX assessed as inhibitor dissociation constant by measuring changes in slope of the double reciprocal plot using phenanthridine as substrate by Michaelis-Menten analysis; settings: read-out: Kis

Row | Ki (Aldehyde oxidase [1]) | Ki (Aldehyde oxidase [2]) | Ki (Aldehyde oxidase [3]) | Ki (Aldehyde oxidase [4]) | SMILES
1 | 1.3 µM | 1.3 µM |  |  | CSc1ccc2c(c1)N(CCC1CCCCN1C)c1ccccc1S2 (centres undefined) [THIORIDAZINE]
2 |  |  | 1620 µM | 1240 µM | N=C(N)c1ccccc1 [BENZAMIDINE]
